Among the data in patent US9580390B2, “Indazole compounds as kinase inhibitors and method of treating cancer with same” (University Health Network, priority 2011, dated 2017) are GI50 values, retold here.

For experiment [1], the system named is ovarian cancer cells (PA-1). Nature of the experiment: Cancer cell line growth inhibition (SRB assay). The experiment is classed as cell-based. The following applies: PA-1 ovarian cancer cells, SRB assay; read-out: Cancer Cell Line GI50 Range PA-1. A general note: The SRB assay estimates cell density from bound dye.
Experiment [2] has as its system colon cancer cells (HCT116). Description: Cancer cell line growth inhibition (SRB assay). The experiment is classed as cell-based. The following applies: Homo sapiens, HCT-116; HCT116 colon cancer cells, SRB assay; read-out: Cancer Cell Line GI50 Range HCT116.

As a reminder, the GI50 is the concentration at which growth is held to half of that of the control.

Some results are limits rather than exact numbers.

Take `O=CN1CCC(Oc2ccc(-c3n[nH]c4ccc(C(=O)N[C@@H](c5ccccn5)C5CC5)cc34)cc2)CC1` [Example A203, (R)-N-(cyclopropyl(pyridin-2-yl)methyl)-3-(4-((1-formylpiperidin-4-yl)oxy)phenyl)-1H-indazole-5-carboxamide]: the GI50 in experiment [1] and in experiment [2] was 100 to 500 nM throughout.

Regarding `CN1CCC(Oc2ccc(-c3n[nH]c4ccc(C(=O)NCc5ccccc5CN5CCOCC5)cc34)cc2)CC1` [Example A109, 3-(4-(1-Methylpiperidin-4-yloxy)phenyl)-N-(2-(morpholinomethyl)benzyl)-1H-indazole-5-carboxamide], the GI50 was 100 to 500 nM in experiment [1] and greater than 500 nM in experiment [2]. On the same counts, the results for `O=C(Nc1ccc2[nH]nc(-c3ccc(N4CCC(O)CC4)cc3)c2c1)C(c1ccsc1)N1CCCCC1` (stereo not drawn) [Example A83, N-(3-(4-(4-hydroxypiperidin-1-yl)phenyl)-1H-indazol-5-yl)-2-(piperidin-1-yl)-2-(thiophen-3-yl)acetamide] are 100 to 500 nM and less than 100 nM.

For `CCc1cccc(CC)c1NC(=O)Nc1ccc2[nH]nc(-c3ccc(C4CN(C)CCO4)cc3)c2c1` (stereo not drawn) [Example A124, 1-(2,6-diethylphenyl)-3-(3-(4-(4-methylmorpholin-2-yl)phenyl)-1H-indazol-5-yl)urea], the GI50 in experiment [1] and in experiment [2] was 100 to 500 nM each time. Take `Cc1ccccc1C(NC(=O)c1ccc2[nH]nc(-c3ccc(N4CC(O)C4)cc3)c2c1)C1CC1` (stereo not drawn) [Example A141, N-(cyclopropyl(o-tolyl)methyl)-3-(4-(3-hydroxyazetidin-1-yl)phenyl)-1H-indazole-5-carboxamide]: the GI50 in experiment [1] and in experiment [2] was 100 to 500 nM in each case. `O=C(NC(c1ccccc1)C1CC1)c1ccc2[nH]nc(-c3ccc(OC4CCN(CCO)CC4)cc3)c2c1` (stereo not drawn) [Example A104, N-(cyclopropyl(phenyl)methyl)-3-(4-((1-(2-hydroxyethyl)piperidin-4-yl)oxy)phenyl)-1H-indazole-5-carboxamide]: the GI50 in experiment [1] and in experiment [2] was less than 100 nM throughout. On to `CC(C)(O)C1CCN(c2ccc(-c3n[nH]c4ccc(NC(=O)C(c5ccsc5)N5CCCC5)cc34)cc2)CC1` (stereo not drawn) [Example A111, N-(3-(4-(4-(2-hydroxypropan-2-yl)piperidin-1-yl)phenyl)-1H-indazol-5-yl)-2-(pyrrolidin-1-yl)-2-(thiophen-3-yl)acetamide], for which the GI50 in experiment [1] and in experiment [2] was less than 100 nM each time. `COc1cc(-c2n[nH]c3ccc(C(=O)NC(c4ccccc4)C4CC4)cc23)ccc1OC1CCN(C=O)CC1` (stereo not drawn) [Example A205, N-(cyclopropyl(phenyl)methyl)-3-(4-((1-formylpiperidin-4-yl)oxy)-3-methoxyphenyl)-1H-indazole-5-carboxamide]: the GI50 in experiment [1] and in experiment [2] was 100 to 500 nM throughout. In the case of `C[C@@H](NC(=O)c1ccc2[nH]nc(-c3ccc(N4CCOCC4)cc3)c2c1)C1CCCCC1` [Example A48, (R)-N-(1-cyclohexylethyl)-3-(4-morpholinophenyl)-1H-indazole-5-carboxamide], in experiment [2], the GI50 is greater than 500 nM. On the same count and under the same terms, in the case of `C[C@H](NC(=O)c1ccc2[nH]nc(-c3ccc(OC4CCN(C)CC4)cc3)c2c1)C1CCCCC1` [Example A38, (S)-N-(1-cyclohexylethyl)-3-(4-((1-methylpiperidin-4-yl)oxy)phenyl)-1H-indazole-5-carboxamide] it was less than 100 nM. Regarding `CN1CCN(Cc2ccc(-c3n[nH]c4ccc(NC(=O)C(c5ccsc5)N5CCCC5)cc34)cc2)CC1` (stereo not drawn) [Example A67, N-(3-(4-((4-methylpiperazin-1-yl)methyl)phenyl)-1H-indazol-5-yl)-2-(pyrrolidin-1-yl)-2-(thiophen-3-yl)acetamide], the GI50 in experiment [2] was in the range of 100 to 500 nM. As for `CN1CCN(c2ccc(-c3n[nH]c4ccc(NC(=O)C5CCCc6ccccc65)cc34)cc2)CC1` (stereo not drawn) [Example A11, N-(3-(4-(4-methylpiperazin-1-yl)phenyl)-1H-indazol-5-yl)-1,2,3,4-tetrahydronaphthalene-1-carboxamide], in experiment [2], the GI50 lay in the range of 100 to 500 nM. Same read-out and setting: in the case of `O=C(N[C@@H](c1ccccc1)C1CC1)c1ccc2[nH]nc(-c3ccc(N4CCOCC4)cc3)c2c1` [Example A51, (R)-N-(cyclopropyl(phenyl)methyl)-3-(4-morpholinophenyl)-1H-indazole-5-carboxamide] it was 100 to 500 nM; in that of `O=C(Nc1ccc2[nH]nc(-c3cccc(CN4CCOCC4)c3)c2c1)C(c1ccsc1)N1CCCC1` (stereo not drawn) [Example A1, N-(3-(3-(morpholinomethyl)phenyl)-1H-indazol-5-yl)-2-(pyrrolidin-1-yl)-2-(thiophen-3-yl)acetamide], greater than 500 nM; in that of `CN1CCC(Oc2ccc(-c3n[nH]c4ccc(C(=O)NCC(C)(C)N5CCOCC5)cc34)cc2)CC1` [Example A74, N-(2-methyl-2-morpholinopropyl)-3-(4-((1-methylpiperidin-4-yl)oxy)phenyl)-1H-indazole-5-carboxamide], greater than 500 nM. Still for that read-out and setting: in the case of `O=C(Nc1ccc2[nH]nc(-c3ccc4c(c3)OCCCO4)c2c1)C(c1ccsc1)N1CCCC1` (stereo not drawn) [Example A20, N-(3-(3,4-dihydro-2H-benzo[b][1,4]dioxepin-7-yl)-1H-indazol-5-yl)-2-(pyrrolidin-1-yl)-2-(thiophen-3-yl)acetamide] it was 100 to 500 nM; in that of `CN1CCC(Oc2ccc(-c3n[nH]c4ccc(NC(=O)Nc5ccccc5Cl)cc34)cc2)CC1` [Example A62, 1-(2-chlorophenyl)-3-(3-(4-((1-methylpiperidin-4-yl)oxy)phenyl)-1H-indazol-5-yl)urea], greater than 500 nM; in that of `CN1CCC(Oc2ccc(-c3n[nH]c4ccc(C(=O)NCC(c5ccsc5)N5CCOCC5)cc34)cc2)CC1` (stereo not drawn) [Example A75, 3-(4-((1-methylpiperidin-4-yl)oxy)phenyl)-N-(2-morpholino-2-(thiophen-3-yl)ethyl)-1H-indazole-5-carboxamide], 100 to 500 nM. Same read-out and setting: in the case of `O=C(N[C@H](c1ccccc1)C1CC1)c1ccc2[nH]nc(-c3ccc(N4CCOCC4)cc3)c2c1` [Example A49, (S)-N-(cyclopropyl(phenyl)methyl)-3-(4-morpholinophenyl)-1H-indazole-5-carboxamide] it was 100 to 500 nM. Turning to `CN1CCC(Oc2ccc(-c3n[nH]c4ccc(NC(=O)C(c5ccsc5)N5CCCC5)cc34)cc2N)CC1` (stereo not drawn) [Example A80, N-(3-(3-amino-4-((1-methylpiperidin-4-yl)oxy)phenyl)-1H-indazol-5-yl)-2-(pyrrolidin-1-yl)-2-(thiophen-3-yl)acetamide], in experiment [2], the GI50 was less than 100 nM. Same read-out and setting: under `COc1cc(-c2n[nH]c3ccc(NC(=O)C(c4ccsc4)N4CCCC4)cc23)ccc1N1CCN(C)CC1` (stereo not drawn) [Example A10, N-(3-(3-methoxy-4-(4-methylpiperazin-1-yl)phenyl)-1H-indazol-5-yl)-2-(pyrrolidin-1-yl)-2-(thiophen-3-yl)acetamide] stands 100 to 500 nM.

`CC(C)N1CCC(Oc2ccc(-c3n[nH]c4ccc(NC(=O)C(c5ccsc5)N5CCCC5)cc34)cc2)CC1` (stereo not drawn) [Example A30, N-(3-(4-((1-isopropylpiperidin-4-yl)oxy)phenyl)-1H-indazol-5-yl)-2-(pyrrolidin-1-yl)-2-(thiophen-3-yl)acetamide]: in experiment [2], the GI50 was less than 100 nM. In the case of `C[C@@H](NC(=O)c1ccc2[nH]nc(-c3ccc(OC4CCN(C)CC4)cc3)c2c1)c1cccs1` [Example A55, (R)-3-(4-((1-methylpiperidin-4-yl)oxy)phenyl)-N-(1-(thiophen-2-yl)ethyl)-1H-indazole-5-carboxamide], the GI50 in experiment [2] was less than 100 nM. On the same count and under the same terms, in the case of `C[C@H]1CCCN1[C@H](C(=O)Nc1ccc2[nH]nc(-c3ccc(N4CCOCC4)cc3)c2c1)c1cccs1` [Example A79, (R)-2-((S)-2-methylpyrrolidin-1-yl)-N-(3-(4-morpholinophenyl)-1H-indazol-5-yl)-2-(thiophen-2-yl)acetamide] it was less than 100 nM; in that of `O=C(Nc1ccc2[nH]nc(-c3ccc(N4CCOCC4)cc3)c2c1)C(c1ccsc1)N1CCCCC1` (stereo not drawn) [Example A32, N-(3-(4-morpholinophenyl)-1H-indazol-5-yl)-2-(piperidin-1-yl)-2-(thiophen-3-yl)acetamide], less than 100 nM; in that of `CN1CCOc2cc(-c3n[nH]c4ccc(NC(=O)C(c5ccsc5)N5CCCC5)cc34)ccc21` (stereo not drawn) [Example A17, N-(3-(4-methyl-3,4-dihydro-2H-benzo[b][1,4]oxazin-7-yl)-1H-indazol-5-yl)-2-(pyrrolidin-1-yl)-2-(thiophen-3-yl)acetamide], greater than 500 nM.

Turning to `CN1CCC(Oc2ccc(-c3n[nH]c4ccc(NC(=O)C5c6ccccc6CCN5C)cc34)cc2)CC1` (stereo not drawn) [Example A39, 2-methyl-N-(3-(4-((1-methylpiperidin-4-yl)oxy)phenyl)-1H -indazol-5-yl)-1,2,3,4-tetrahydroisoquinoline-1-carboxamide], the GI50 in experiment [2] was less than 100 nM.

With `CN(c1ccc(-c2n[nH]c3ccc(NC(=O)C(c4ccsc4)N4CCCC4)cc23)cc1)C1CCOCC1` (stereo not drawn) [Example A78, N-(3-(4-(methyl(tetrahydro-2H-pyran-4-yl)amino)phenyl)-1H-indazol-5-yl)-2-(pyrrolidin-1-yl)-2-(thiophen-3-yl)acetamide], the GI50 in experiment [2] was less than 100 nM. Same read-out and setting: in the case of `O=C(Nc1ccc2[nH]nc(-c3ccc(NC4CCCC4)cc3)c2c1)C(c1ccsc1)N1CCCC1` (stereo not drawn) [Example A70, N-(3-(4-(cyclopentylamino)phenyl)-1H-indazol-5-yl)-2-(pyrrolidin-1-yl)-2-(thiophen-3-yl)acetamide] it was 100 to 500 nM. Still for that read-out and setting: under `COc1cc(-c2n[nH]c3ccc(NC(=O)C(c4ccsc4)N4CCCC4)cc23)ccc1OC1CCN(C)CC1` (stereo not drawn) [Example A21, N-(3-(3-methoxy-4-((1-methylpiperidin-4-yl)oxy)phenyl)-1H -indazol-5-yl)-2-(pyrrolidin-1-yl)-2-(thiophen-3-yl)acetamide] stands less than 100 nM; under `C[C@H]1CCCN1[C@H](C(=O)Nc1ccc2[nH]nc(-c3ccc(N4CCOCC4)cc3)c2c1)c1ccsc1` [Example A47, (S)-2-((S)-2-methylpyrrolidin-1-yl)-N-(3-(4-morpholinophenyl)-1H-indazol-5-yl)-2-(thiophen-3-yl)acetamide], 100 to 500 nM.
